23 compounds from patent US20110306636A1, “OXAZOLE PYRIDINE DERIVATIVES USEFUL AS S1P1 RECEPTOR AGONISTS” (Merck Serono SA, priority 2009, published 2011) can be followed below.

For experiment [1], the target named is T1, S1P1 (Homo sapiens, UniProt P21453). Kind of experiment: 35S-GTPγS binding assay, S1P1 membranes. As to conditions: membranes from CHO cells expressing S1P1; read-out: S1P1/GTPG EC50. Type of experiment: biochemical. As for the experimental part: Membranes Preparation: Membranes were prepared from CHO cells expressing S1P1 or S1P3 for use in ligand and 35S-GTPγS binding studies. Cells were suspended in 50 mM TRIS, pH 7.4, 2 mM EDTA, 250 mM Sucrose (buffer A) and 1× Complete protease inhibitor cocktail (Roche), and disrupted at 4° C. by N2 decompression using a cell disruption bomb (Parr Instrument). Following centrifugation at 1000 RPM for 10 min at 4° C., the supernatant was diluted (2×) in buffer A and centrifuged again at 19000 RPM for 75 min at 4° C. The pellet was then suspended in 10 mM HEPES, pH 7.4, 1 mM EDTA, 250 mM Sucrose (Buffer B), and 1× Complete EDTA-free protease inhibitor cocktail and homogenized using a potter. Membranes were flash frozen in liquid N2 and stored at −80° C.
Measurements of 35S-GTPγS Binding: Membranes (1 to 10 μg protein) prepared as described above, were incubated in 96-well Scintiplates (PerkinElmer) with test compounds diluted in DMSO, in 140 μl of 20 mM HEPES, pH 7.4, 10 mM MgCl2, 2 μg/well Saponin, 0.2% fatty acid free BSA (Assay buffer), 125 mM NaCl and 1.5 μM GDP. The assay was initiated with the addition of 60 μl of 1.5 nM [35S]-GTPγS (1100 Ci/mmol; GE Healthcare) in assay buffer. After 60 min incubation at 30° C. on a shaker, plates were centrifuged for 10 min at 2000 RPM. Supernatant was discarded and membrane bound radioactivity was measured on a PerkinElmer 1450 MicroBeta counter. Triplicate samples were averaged and expressed as % response relative to S1P activation in absence of compound (n=2).
The “potency” or the “activity” of the compounds is determined by the EC50 values as evaluated in the above described 35S-GTPγS binding assay.

The target in experiment [2] is T1, S1P1. Kind of experiment: Receptor binding assay, [33P]sphingosine 1-phosphate competition, S1P1. The method in brief: (§1)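 SPA competition binding on CHO-cell membranes with 30 pM (S1P1) or 15 pM (S1P3) [33P]S1P in 50 mM HEPES pH 7.5, 5 mM MgCl2, 100 mM NaCl, 0.4% fatty acid-free BSA, 60 min at RT. Percent inhibition normalised to total binding and to non-specific binding (1000-fold unlabelled S1P), triplicates averaged.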

Another experiment deals with S1P3 (Homo sapiens, UniProt Q99500). Kind of experiment: Receptor binding assay, [33P]sphingosine 1-phosphate competition, S1P3. To be noted: 384 well-plate; read-out: S1P3 binding IC50 (M) (384 well-plate). The method in brief:
as §1

Experiment [3] deals with T2, human S1P1 Receptor fused to the green fluorescent protein (EGFP) (Homo sapiens, UniProt P21453).
T2 construct: host or cells: U2OS (human bone osteosarcoma epithelial cells), CMV promoter, geneticin selection
The experiment is described as follows: Internalization of S1P1 in S1P1-U2OS cells by cell imaging analysis. As to conditions: 1 hour incubation, 384-well. The format is cell-based. The method in brief: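 Human U2OS osteosarcoma cells stably expressed human S1P1-EGFP. After 2 h serum starvation in 0.1% fatty-acid-free BSA medium, cells were treated with compounds for 1 h at 37 °C. Cells were then fixed and Hoechst-stained, and internalization was imaged as spots (receptor) per nucleus.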

Where [4] appears, read: 96 well-plate, read-out: S1P1 binding IC50 (M) (96 well-plate).
Where [5] appears, read: 384 well-plate, read-out: S1P1 binding IC50 (M) (384 well-plate).

Structures can show the parent of a compound that is named as a salt. Where two headings read alike, the source gives them in different places.

As a reminder, the IC50 is the concentration that inhibits the measured activity by half.

T1 sequence (P21453 whole entry, species assumed): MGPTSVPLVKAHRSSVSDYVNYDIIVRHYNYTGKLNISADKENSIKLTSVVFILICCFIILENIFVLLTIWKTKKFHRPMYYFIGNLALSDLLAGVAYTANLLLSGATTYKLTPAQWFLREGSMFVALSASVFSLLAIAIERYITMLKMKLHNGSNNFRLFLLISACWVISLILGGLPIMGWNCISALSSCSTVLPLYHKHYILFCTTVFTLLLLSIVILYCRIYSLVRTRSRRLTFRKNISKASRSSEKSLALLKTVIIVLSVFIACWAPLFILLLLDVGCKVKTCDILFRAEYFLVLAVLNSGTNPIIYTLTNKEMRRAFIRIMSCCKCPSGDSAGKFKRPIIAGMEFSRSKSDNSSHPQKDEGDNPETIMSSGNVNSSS
T2 sequence (P21453 with tags, fused parts or gaps): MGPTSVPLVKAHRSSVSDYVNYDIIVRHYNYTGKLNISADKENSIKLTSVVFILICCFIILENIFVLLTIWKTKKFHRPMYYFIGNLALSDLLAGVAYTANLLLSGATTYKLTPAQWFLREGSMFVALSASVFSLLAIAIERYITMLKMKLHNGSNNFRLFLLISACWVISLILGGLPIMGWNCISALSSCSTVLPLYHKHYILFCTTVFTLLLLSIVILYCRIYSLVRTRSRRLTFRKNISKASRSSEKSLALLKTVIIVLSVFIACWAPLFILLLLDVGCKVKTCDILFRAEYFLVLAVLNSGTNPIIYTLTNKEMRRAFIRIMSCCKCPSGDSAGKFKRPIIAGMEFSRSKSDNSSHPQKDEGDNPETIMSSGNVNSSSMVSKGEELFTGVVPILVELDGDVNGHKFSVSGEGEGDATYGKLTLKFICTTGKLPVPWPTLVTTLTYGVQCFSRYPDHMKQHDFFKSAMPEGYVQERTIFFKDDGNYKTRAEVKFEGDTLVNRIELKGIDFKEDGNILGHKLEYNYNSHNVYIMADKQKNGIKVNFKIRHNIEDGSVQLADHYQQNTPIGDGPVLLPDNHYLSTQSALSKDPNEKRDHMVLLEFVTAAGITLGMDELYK
Chain of S1P3 (Q99500 whole entry, species assumed): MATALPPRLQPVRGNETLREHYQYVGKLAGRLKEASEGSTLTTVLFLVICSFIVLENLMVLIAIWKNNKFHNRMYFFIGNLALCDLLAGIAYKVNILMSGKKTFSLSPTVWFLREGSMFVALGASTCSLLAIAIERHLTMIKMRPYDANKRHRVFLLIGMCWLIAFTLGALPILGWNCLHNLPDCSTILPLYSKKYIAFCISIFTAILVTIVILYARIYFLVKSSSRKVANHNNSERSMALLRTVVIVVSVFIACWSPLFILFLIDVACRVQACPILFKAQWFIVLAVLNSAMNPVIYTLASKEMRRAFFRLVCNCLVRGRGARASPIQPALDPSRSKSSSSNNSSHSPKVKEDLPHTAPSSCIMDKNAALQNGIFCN

Consider `COCc1cc(-c2nc(-c3ccc(N(C)C)nc3)no2)ccc1-c1ccccc1C` [Example 30, 5-{5-[2-(methoxymethyl)-2′-methylbiphenyl-4-yl]-1,2,4-oxadiazol-3-yl}-N,N-dimethylpyridin-2-amine], for which the EC50 at S1P1 [1] is 688 nM.
For `COCc1cc(-c2nc(-c3ccc(NCC(=O)O)nc3)no2)ccc1-c1ccccc1C` [Example 3, N-(5-{5-[2-(methoxymethyl)-2′-methylbiphenyl-4-yl]-1,2,4-oxadiazol-3-yl}pyridin-2-yl)glycine, hydrochloride salt], on S1P1 [1], the EC50 is 131 nM.
For `COCc1cc(-c2nc(-c3ccc(N)nc3)no2)ccc1N1CCCC1C` (stereo not drawn) [Example 33, 5-{5-[3-(methoxymethyl)-4-(2-methylpyrrolidin-1-yl)phenyl]-1,2,4-oxadiazol-3-yl}pyridin-2-amine], on S1P1 [2] (setting [4]), the IC50 was 5.37e-08 M. Besides, the EC50 at S1P1 [1] was determined as 7.39 nM.
Turning to `COCc1cc(-c2nc(-c3cnc(NCC(=O)O)c(Cl)c3)no2)ccc1-c1ccccc1C` [Example 38, N-(3-chloro-5-{5-[2-(methoxymethyl)-2′-methylbiphenyl-4-yl]-1,2,4-oxadiazol-3-yl}pyridin-2-yl)glycine, hydrochloride salt], the EC50 on S1P1 [1] was 29.1 nM.
For `CC1CCCCN1c1ccc(-c2nc(-c3ccc(N)nc3)no2)cc1C(F)(F)F` (stereo not drawn) [Example 20, 5-{5-[4-(2-methylpiperidin-1-yl)-3-(trifluoromethyl)phenyl]-1,2,4-oxadiazol-3-yl}pyridin-2-amine], on S1P1 [2] (setting [4]), the 50% inhibitory concentration (IC50) worked out at 1.03e-08 M. Besides, the EC50 on S1P1 [1] was found to be 14.7 nM.
For the compound `COCc1cc(-c2nc(-c3cnc(N)cn3)no2)ccc1-c1ccccc1C` [Example 16, 5-{5-[2-(methoxymethyl)-2′-methylbiphenyl-4-yl]-1,2,4-oxadiazol-3-yl}pyrazin-2-amine], on S1P1 [1], the EC50 was 72.8 nM.
For `COCc1cc(-c2nc(-c3ccnc(NCC(=O)O)c3)no2)ccc1-c1ccccc1C` [Example 11, N-(4-{5-[2-(methoxymethyl)-2′-methylbiphenyl-4-yl]-1,2,4-oxadiazol-3-yl}pyridin-2-yl)glycine, hydrochloride salt], the figures for the IC50 at S1P3 and at S1P1 [2] (setting [5]) were 2.97e-06 M and 6.42e-08 M, respectively. Besides, the EC50 is 244 nM in experiment [3] and 22.2 nM on S1P1 [1].
As for `COCc1cc(-c2nc(-c3ccc(NC(C)=O)nc3)no2)ccc1-c1ccccc1C` [Example 5, N-(5-{5-[2-(methoxymethyl)-2′-methylbiphenyl-4-yl]-1,2,4-oxadiazol-3-yl}pyridin-2-yl)acetamide, hydrochloride salt], the EC50 on S1P1 [1] is 14.6 nM.
Take `COCc1cc(-c2nc(-c3ccnc(N(C)C)c3)no2)ccc1-c1ccccc1C` [Example 6, 4-{5-[2-(methoxymethyl)-2′-methylbiphenyl-4-yl]-1,2,4-oxadiazol-3-yl}-N,N-dimethylpyridin-2-amine, hydrochloride salt]: the EC50 on S1P1 [1] was found to be 145 nM.
In the case of `CCc1ccccc1-c1ccc(-c2nc(-c3ccc(N)nc3)no2)cc1COC` [Example 12, 5-{5-[2′-ethyl-2-(methoxymethyl)biphenyl-4-yl]-1,2,4-oxadiazol-3-yl}pyridin-2-amine, hydrochloride salt], the IC50 at S1P1 [2] (setting [4]) was found to be 8.84e-09 M. For the same compound, at S1P1 [1], the EC50 came out at 1.63 nM.
Take `COCCNc1ncc(-c2noc(-c3ccc(-c4ccccc4C)c(COC)c3)n2)cc1Cl` [Example 34, 3-chloro-N-(2-methoxyethyl)-5-{5-[2-(methoxymethyl)-2′-methylbiphenyl-4-yl]-1,2,4-oxadiazol-3-yl}pyridin-2-amine]: on S1P1 [2] (setting [4]), the IC50 was 5.26e-09 M. For the same compound, the EC50 on S1P1 [1] was determined as 11.8 nM.
With `CNc1ccc(-c2noc(-c3ccc(-c4ccccc4C)c(COC)c3)n2)cn1` [Example 29, 5-{5-[2-(methoxymethyl)-2′-methylbiphenyl-4-yl]-1,2,4-oxadiazol-3-yl}-N-methylpyridin-2-amine], on S1P1 [1], the EC50 turned out to be 43.8 nM.
Turning to `COCc1cc(-c2nc(-c3ccc(C(N)=O)nc3)no2)ccc1-c1ccccc1C` [Example 26, 5-{5-[2-(methoxymethyl)-2′-methylbiphenyl-4-yl]-1,2,4-oxadiazol-3-yl}pyridine-2-carboxamide], the EC50 at S1P1 [1] was 45.2 nM.
Turning to `COCc1cc(-c2nc(-c3cnc(N)nc3)no2)ccc1-c1ccccc1C` [Example 17, 5-{5-[2-(methoxymethyl)-2′-methylbiphenyl-4-yl]-1,2,4-oxadiazol-3-yl}pyrimidin-2-amine], the EC50 (in experiment [3]; at S1P1 [1]) was 152 nM throughout. Besides, the 50% inhibitory concentration (IC50) at S1P1 [2] (setting [5]) came to 2.92e-08 M.
In the case of `COCc1cc(-c2nc(-c3ccnc(NCC(=O)OC(C)(C)C)c3)no2)ccc1-c1ccccc1C` [Example 10, tert-butyl N-(4-{5-[2-(methoxymethyl)-2′-methylbiphenyl-4-yl]-1,2,4-oxadiazol-3-yl}pyridin-2-yl)glycinate], on S1P1 [1], the EC50 was found to be 140 nM.
Consider `COCc1cc(-c2nc(-c3ccc(N4CCCC4)nc3)no2)ccc1-c1ccccc1C` [Example 31, 5-{5-[2-(methoxymethyl)-2′-methylbiphenyl-4-yl]-1,2,4-oxadiazol-3-yl}-2-pyrrolidin-1-ylpyridine], for which the EC50 on S1P1 [1] came to 873 nM.
As to `COCc1cc(-c2nc(-c3ccc(C(=O)O)nc3)no2)ccc1-c1ccccc1C` [Example 25, 5-{5-[2-(methoxymethyl)-2′-methylbiphenyl-4-yl]-1,2,4-oxadiazol-3-yl}pyridine-2-carboxylic acid, hydrochloride salt], on S1P1 [1], the EC50 stood at 39.9 nM.
With `COCc1cc(-c2nc(-c3ccc(NCCC(=O)OC(C)(C)C)nc3)no2)ccc1-c1ccccc1C` [Example 1, tert-butyl N-(5-{5-[2-(methoxymethyl)-2′-methylbiphenyl-4-yl]-1,2,4-oxadiazol-3-yl}pyridin-2-yl)-beta-alaninate], the EC50 at S1P1 [1] came to 134 nM.
Still for that read-out and setting: for `CC1CCCCN1c1ccc(-c2nc(-c3cnc(N)c(Cl)c3)no2)cc1C(F)(F)F` (stereo not drawn) [Example 39, 3-chloro-5-{5-[4-(2-methylpiperidin-1-yl)-3-(trifluoromethyl)phenyl]-1,2,4-oxadiazol-3-yl}pyridin-2-amine] the value was 32.6 nM.
Take `COCc1cc(-c2nc(-c3ccc(NCCO)nc3)no2)ccc1-c1ccccc1C` [Example 28, 2-[(5-{5-[2-(methoxymethyl)-2′-methylbiphenyl-4-yl]-1,2,4-oxadiazol-3-yl}pyridin-2-yl)amino]ethanol]: the IC50 on S1P1 [2] (setting [4]) was 4.54e-09 M. The EC50 on S1P1 [1] was 5.25 nM.
For `COCc1cc(-c2nc(-c3ccc(NCCCC(=O)O)nc3)no2)ccc1-c1ccccc1C` [Example 8, 4-[(5-{5-[2-(methoxymethyl)-2′-methylbiphenyl-4-yl]-1,2,4-oxadiazol-3-yl}pyridin-2-yl)amino]butanoic acid, hydrochloride salt], at S1P1 [1], the EC50 was found to be 9.99 nM.
As to `COCc1cc(-c2nc(-c3ccc(OC)nc3)no2)ccc1-c1ccccc1C` [Example 23, 2-methoxy-5-{5-[2-(methoxymethyl)-2′-methylbiphenyl-4-yl]-1,2,4-oxadiazol-3-yl}pyridine], the EC50 at S1P1 [1] came to 74.1 nM.
Consider `Cc1ccccc1-c1ccc(-c2nc(-c3ccc(N)nc3)no2)cc1C(F)(F)F` [Example 19, 5-{5-[2′-methyl-2-(trifluoromethyl)biphenyl-4-yl]-1,2,4-oxadiazol-3-yl}pyridin-2-amine], for which the EC50 on S1P1 [1] turned out to be 22.3 nM.
